{
  "source": "patent US20140294849A1",
  "about": "“COMPOSITIONS AND USES” (GLAXOSMITHKLINE BIOLOGICALS SA, priority 2011, published 2014)",
  "key": {"[1]": {"tested_on": "Lineage-CD11b+ monocytes in peripheral blood", "test": "Monocyte analysis and counting after adjuvant injection in mice", "assay_type": "in vivo, C57BL/6 mice", "details": "Example 12, single i.m. injection", "protocol": "(§1) 24-Hours after injection of the TLR adjuvants, peripheral blood was drawn from C57BL/6 mice via cardiac puncture with lithium-heparin as anticoagulant. Red blood cell lysis was performed twice on pooled blood with Ammonium Chloride-based Buffer (Sigma, Steinheim, Germany) and cells were counted with the EasyCount™ System (Immunicon). […] Cells were finally washed three times and fixed for 15 min. with a 2% paraformaldehyde solution in PBS. Fluorescence minus one (FMO) controls were always included in the assays for fluorescent compensation setting. Samples were acquired on a flow cytometer (BD FACSCanto II) and data analyzed with the FACSDiva software (BD Biosciences). Monocytes were identified by their Side/Forward scatter properties and gated as CD3-/CD45R/B220-/Ly-6G-/NK1.1-(Lineage-)/CD11b+ cells. CD11b+ monocyte frequency was reported as a percentage of the total cells excluding debris.\nas §1, with “24 hours” for “24-Hours”, “each immunomodulator,” for “the TLR adjuvants,”, “min” for “min.”, “monocytes” for “monocyte”\nCells were finally washed twice and fixed for 15 min. with a 2% paraformaldehyde solution in PBS. FMOs controls were always included in the assays. Samples were acquired on a flow cytometer (BD FACSCanto II) and data analyzed with the FACSDiva software (BD Biosciences). Monocytes were identified and counted by their Side/Forward scatter properties, excluding debris and gated as CD3-/CD45R/B220-/Ly-6G-/NK1.1-(Lineage-)/CD11 b+ cells."}, "CD11b+ monocytes": {"tested_on": "CD11b+ monocytes", "test": "In vivo uptake assay of Aβ42 after immunization or passive immunotherapy", "parameters": "species or system C57BL/6 mice", "details": "Example 20", "protocol": "Mice: C57BL/6 female mice were purchased from Charles River. […]\n[…] At day 22, 5 μg per mouse of fluorescent HiLyte Fluor™ 488-labeled Amyloid β1-42 (Anaspec, Fremont, Calif.) was injected in the tail vein. […] Plasma of pooled blood was decanted and saved for measurement of antibody titres by ELISA. Red blood cell lysis was performed twice with Ammonium Chloride-based Buffer (Sigma, Steinheim, Germany) and cells were counted with the EasyCount™ System (Immunicon).\nFACS analysis: 500,000 cells were aliquoted in a 96-well plate, washed once, incubated for 10 min. on ice in the presence of Rat anti-Mouse CD16/CD32 (clone 2.4G2—BD Fc Block™) and further stained for 30 min. with a combination of the following directly conjugated antibodies at their pre-determined optimal concentration: PE-Hamster anti-Mouse CD3 (clone 145-2C11), Rat anti-Mouse CD45R/B220 (clone RA3-6B2), Rat anti-Mouse Ly-6G (clone 1A8), Mouse anti-Mouse NK1.1 (clone PK136), APC-conjugated Rat anti-Mouse CD11b (clone M1/70), PE-Cy7-conjugated Hamster anti-Mouse CD11c (clone HL3), (all from BD PharMingen). Cells were finally washed twice and fixed for 15 min. with a 2% paraformaldehyde solution in PBS. FMOs controls were always included in the assays.\nSamples were acquired on a flow cytometer (BD FACSCanto II) and data analyzed with the FACSDiva software (BD Biosciences).\nMonocytes were identified by their Side/Forward scatter properties, excluding debris and gated as CD3-/CD45R/B220-/Ly-6G-/NK1.1-(Lineage-)/CD11b+ cells. Aβ uptake was assessed by reporting the percentage and Mean Fluorescence Intensity (GeoMean) of positive HiLyte Fluor™ 488 Aβ1-42 cells among gated monocytes.\nMice were passively immunized with a constant dose of anti Aβ monoclonal antibody (15 ug of 2E7)+different dose of immunomodulators (CRX601 or CRX601/AS03 or AS01B). […] Red blood cell lysis was performed twice with Ammonium Chloride-based Buffer (Sigma, Steinheim, Germany) and cells were counted with the EasyCount™ System (Immunicon). […]"}},
  "data": [
    {"compound": "CCCCCCCCCCC[C@H](CC(=O)N[C@H]1[C@H](OC[C@H](NC(=O)C[C@@H](CCCCCCCCCCC)OCCCCCCCCCC)C(=O)O)O[C@H](CO)[C@@H](OP(=O)(O)O)[C@@H]1OC(=O)C[C@@H](CCCCCCCCCCC)OCCCCCCCCCC)OCCCCCCCCCC", "note": "[CRX601]", "values": [
      {"measurement": "monocyte effect at 20 μg dose", "setting": "[1]", "result": "down modulated"},
      {"measurement": "dose of maximum monocyte response", "setting": "[1]; 0.2 to 20 ug/mouse", "result": 10, "unit": "µg"},
      {"measurement": "dose enough to trigger an increase of the monocyte count", "setting": "[1]; 24 hrs, compared to PBS", "result": 1, "unit": "µg"},
      {"measurement": "antibody-mediated Aβ uptake when combined with AS03 emulsion", "setting": "CD11b+ monocytes; CRX601 20 ug with AS03", "result": "partially quenched"},
      {"measurement": "antibody-mediated Aβ uptake", "setting": "CD11b+ monocytes; CRX601 at 20 ug single i.m., 15 ug of 2E7, 24 hrs", "result": "highest Aβ uptake"},
      {"measurement": "dose dependence of antibody-mediated Aβ uptake", "setting": "CD11b+ monocytes; different doses, constant 2E7", "result": "Dose-response observed"}
    ]}
  ]
}
